Measurements taken from patent US20240199546A1, “INHIBITORS OF SOLUTE CARRIER FAMILY 6A MEMBER 19 (SLC6A19) AND METHODS OF USE THEREOF” (Maze Therapeutics, Inc., priority 2022, published 2024).
pIC50: −log10 of the molar value.

Legend:
human SLC6A19 and TMEM27 [1] = biological target: T1, human SLC6A19 and TMEM27 (Homo sapiens, UniProt Q695T7); assay: Radiolabelled (3H) leucine uptake in CHO cells with doxycycline-inducible expression of human SLC6A19 and TMEM27 (Example B-1); format: cell-based; conditions: CHO cells with doxycycline-inducible expression of human SLC6A19 and TMEM27, read-out: SLC6A19_Radioligand Uptake Assay IC50
T1 construct: expressed in transfected cells
T1 sequence (Q695T7 1-634): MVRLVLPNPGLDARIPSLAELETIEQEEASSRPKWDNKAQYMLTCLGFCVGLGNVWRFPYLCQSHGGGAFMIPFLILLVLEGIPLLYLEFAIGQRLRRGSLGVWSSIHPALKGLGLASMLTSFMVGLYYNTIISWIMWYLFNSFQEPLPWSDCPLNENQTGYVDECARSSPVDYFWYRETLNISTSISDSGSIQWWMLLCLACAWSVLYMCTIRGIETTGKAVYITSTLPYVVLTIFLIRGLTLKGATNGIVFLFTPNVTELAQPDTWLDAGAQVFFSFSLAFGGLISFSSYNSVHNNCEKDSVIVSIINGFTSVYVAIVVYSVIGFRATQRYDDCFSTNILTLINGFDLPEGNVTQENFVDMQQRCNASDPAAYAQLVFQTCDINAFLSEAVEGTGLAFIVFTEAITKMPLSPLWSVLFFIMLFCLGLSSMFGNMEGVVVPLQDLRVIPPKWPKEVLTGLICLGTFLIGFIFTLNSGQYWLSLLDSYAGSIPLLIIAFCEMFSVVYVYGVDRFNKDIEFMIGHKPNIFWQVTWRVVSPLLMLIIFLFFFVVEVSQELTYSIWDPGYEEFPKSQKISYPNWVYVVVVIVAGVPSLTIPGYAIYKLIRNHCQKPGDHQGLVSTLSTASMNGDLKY
T1 sequence (Q9HBJ8 15-222 partner): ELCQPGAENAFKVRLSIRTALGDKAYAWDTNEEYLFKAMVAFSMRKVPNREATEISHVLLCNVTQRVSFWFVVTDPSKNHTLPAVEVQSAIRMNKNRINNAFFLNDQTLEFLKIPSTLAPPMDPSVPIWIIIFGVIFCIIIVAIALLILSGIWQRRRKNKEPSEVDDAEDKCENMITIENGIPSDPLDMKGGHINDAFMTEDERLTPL
How it was run: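 CHO cells were induced with doxycycline for 18 h at 37 °C, washed in HBSS, then exposed to compounds for 1 h: 8-point, 3-fold dilutions in duplicate, 0.5% DMSO final. Uptake measured by scintillation counting after 2 h shaking. Activity normalized with positive control as 0% and DMSO as 100%.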

human SLC6A19 and TMEM27 [2] = biological target: T1, human SLC6A19 and TMEM27; assay: 13C6,15N-isoleucine uptake in CHO cells with doxycycline-inducible expression of human SLC6A19 and TMEM27, RapidFire mass spectrometry (Example B-2); format: cell-based; conditions: read-out: SLC6A19_RapidFire Uptake Assay IC50
How it was run: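 Read-out is RapidFire mass-spec peak area of 13C6,15N-isoleucine taken up over 20 min at 37 °C, after 20 min compound pre-exposure in pH 7.2 HEPES-buffered saline. Cells: doxycycline-induced CHO co-expressing human SLC6A19 and TMEM27; compounds as duplicate 10-point 2-fold dilutions, positive control setting 0% activity.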

SMILES | pIC50 (human SLC6A19 and TMEM27 [1]) | pIC50 (human SLC6A19 and TMEM27 [2])
CC(=O)NCc1cc2cc(C)c(OCc3cscn3)cc2[nH]1 [Compound 234, N-((5-methyl-6-(thiazol-4-ylmethoxy)-1H-indol-2-yl)methyl)acetamide] | 6.44 | 6.34
CC(=O)NCc1cc2cc(C)c(OCc3ccon3)cc2[nH]1 [Compound 235, N-((6-(isoxazol-3-ylmethoxy)-5-methyl-1H-indol-2-yl)methyl)acetamide] | 6.55 | 6.28
CC(=O)NCc1cc2cc(F)c(OCc3coc(C)n3)cc2[nH]1 [Compound 236, N-((5-fluoro-6-((2-methyloxazol-4-yl)methoxy)-1H-indol-2-yl)methyl)acetamide] | 5.52 | < 4.71
CC1(C(=O)NCc2cc3cc(Cl)c(OCc4ccc(Cl)s4)cc3[nH]2)CC1 [Compound 320, N-((5-chloro-6-((5-chlorothiophen-2-yl)methoxy)-1H-indol-2-yl)methyl)-1-methylcyclopropane-1-carboxamide] | 5.97 | 6.32
CC1(C(=O)NCc2cc3cc(Cl)c(OCc4ccsc4Cl)cc3[nH]2)CC1 [Compound 321, N-((5-chloro-6-((2-chlorothiophen-3-yl)methoxy)-1H-indol-2-yl)methyl)-1-methylcyclopropane-1-carboxamide] | 6.05 | 6.42
CC1(C(=O)NCc2cc3cc(Cl)c(OCc4ccns4)cc3[nH]2)CC1 [Compound 322, N-((5-chloro-6-(isothiazol-5-ylmethoxy)-1H-indol-2-yl)methyl)-1-methylcyclopropane-1-carboxamide] | 6.56 | 6.86
CC1(C(=O)NCc2cc3cc(Cl)c(OCc4ncc(Cl)s4)cc3[nH]2)CC1 [Compound 323, N-((5-chloro-6-((5-chlorothiazol-2-yl)methoxy)-1H-indol-2-yl)methyl)-1-methylcyclopropane-1-carboxamide] | 5.74 | 6.27
CC1(C(=O)NCc2cc3cc(Cl)c(OCc4csc(Cl)c4)cc3[nH]2)CC1 [Compound 324, N-((5-chloro-6-((5-chlorothiophen-3-yl)methoxy)-1H-indol-2-yl)methyl)-1-methylcyclopropane-1-carboxamide] | 5.95 | 6.32
CC1(C(=O)NCc2cc3cc(Cl)c(OCc4ccno4)cc3[nH]2)CC1 [Compound 326, N-((5-chloro-6-(isoxazol-5-ylmethoxy)-1H-indol-2-yl)methyl)-1-methylcyclopropane-1-carboxamide] | 6.71 | 6.90
CC1(C(=O)NCc2cc3cc(F)c(OCc4cccc(F)n4)cc3[nH]2)CC1 [Compound 327, N-((5-fluoro-6-((6-fluoropyridin-2-yl)methoxy)-1H-indol-2-yl)methyl)-1-methylcyclopropane-1-carboxamide] | 6.65 | 7.05
CC1(C(=O)NCc2cc3cc(F)c(OCc4ccccn4)cc3[nH]2)CC1 [Compound 330, N-((5-fluoro-6-(pyridin-2-ylmethoxy)-1H-indol-2-yl)methyl)-1-methylcyclopropane-1-carboxamide] | 6.78 | 6.91
CC1(C(=O)NCc2cc3cc(F)c(OCc4cccnc4F)cc3[nH]2)CC1 [Compound 332, N-((5-fluoro-6-((2-fluoropyridin-3-yl)methoxy)-1H-indol-2-yl)methyl)-1-methylcyclopropane-1-carboxamide] | 6.57 | 6.73
CC1(C(=O)NCc2cc3cc(C4CC4)c(OCc4cscn4)cc3[nH]2)CC1 [Compound 341, N-((5-cyclopropyl-6-(thiazol-4-ylmethoxy)-1H-indol-2-yl)methyl)-1-methylcyclopropane-1-carboxamide] | 6.56 | 6.71
CC1(C(=O)NCc2cc3cc(C4CC4)c(OCc4ccon4)cc3[nH]2)CC1 [Compound 342, N-((5-cyclopropyl-6-(isoxazol-3-ylmethoxy)-1H-indol-2-yl)methyl)-1-methylcyclopropane-1-carboxamide] | 6.59 | 6.67
Cc1cc(COc2c(Cl)cc3cc(CNC(=O)C4(C)CC4)[nH]c3c2Cl)no1 [Compound 343, N-((5,7-dichloro-6-((5-methylisoxazol-3-yl)methoxy)-1H-indol-2-yl)methyl)-1-methylcyclopropane-1-carboxamide] | 5.50 | 5.61
CC1(C(=O)NCc2cc3cc(Cl)c(OCc4cscn4)c(Cl)c3[nH]2)CC1 [Compound 344, N-((5,7-dichloro-6-(thiazol-4-ylmethoxy)-1H-indol-2-yl)methyl)-1-methylcyclopropane-1-carboxamide] | 5.41 | < 4.30
CC1(C(=O)NCc2cc3cc(Cl)c(OCc4ccon4)c(Cl)c3[nH]2)CC1 [Compound 346, N-((5,7-dichloro-6-(isoxazol-3-ylmethoxy)-1H-indol-2-yl)methyl)-1-methylcyclopropane-1-carboxamide] | < 5.02 | < 4.30
CC1(C(=O)NCc2cc3cc(Cl)c(OCc4c(F)ccnc4Cl)cc3[nH]2)CC1 [Compound 351, N-((5-chloro-6-((2-chloro-4-fluoropyridin-3-yl)methoxy)-1H-indol-2-yl)methyl)-1-methylcyclopropane-1-carboxamide] | 5.61 | 5.81
CC1(C(=O)NCc2cc3cc(Cl)c(OCc4cc(C(F)(F)F)on4)cc3[nH]2)CC1 [Compound 352, N-((5-chloro-6-((5-(trifluoromethyl)isoxazol-3-yl)methoxy)-1H-indol-2-yl)methyl)-1-methylcyclopropane-1-carboxamide] | 7.17 | 6.33
CC1CN(C(=O)NCc2cc3cc(F)c(OCc4cscn4)cc3[nH]2)C1 [Compound 357, N-((5-fluoro-6-(thiazol-4-ylmethoxy)-1H-indol-2-yl)methyl)-3-methylazetidine-1-carboxamide] | 6.38 | 6.36
CN(C(=O)NCc1cc2cc(Cl)c(OCc3ccon3)cc2[nH]1)C1CC1 [Compound 379, 3-((5-chloro-6-(isoxazol-3-ylmethoxy)-1H-indol-2-yl)methyl)-1-cyclopropyl-1-methylurea] | 6.42 | 6.62
CC1CN(C(=O)NCc2cc3cc(F)c(OCc4ccon4)cc3[nH]2)C1 [Compound 389, N-((5-fluoro-6-(isoxazol-3-ylmethoxy)-1H-indol-2-yl)methyl)-3-methylazetidine-1-carboxamide] | 6.45 | 6.31
CC1CN(C(=O)NCc2cc3cc(Cl)c(OCc4ccon4)cc3[nH]2)C1 [Compound 390, N-((5-chloro-6-(isoxazol-3-ylmethoxy)-1H-indol-2-yl)methyl)-3-methylazetidine-1-carboxamide] | 6.47 | 6.40
CC1(C(=O)NCc2cc3cc(Cl)c(OCc4cc5ccccn5n4)cc3[nH]2)CC1 [Compound 392, N-((5-chloro-6-(pyrazolo[1,5-a]pyridin-2-ylmethoxy)-1H-indol-2-yl)methyl)-1-methylcyclopropane-1-carboxamide] | 5.55 | 5.79
CC1(C(=O)NCc2cc3cc(Cl)c(OCCC4CC(F)(F)C4)cc3[nH]2)CC1 [Compound 393, N-((5-chloro-6-(2-(3,3-difluorocyclobutyl)ethoxy)-1H-indol-2-yl)methyl)-1-methylcyclopropane-1-carboxamide] | 5.84 | 6.11
